Experimental data reported in patent publication US20240210412A1, “SULFONYL-TRIAZOLE COMPOUNDS USEFUL AS LIGANDS AND INHIBITORS OF PROSTAGLANDIN REDUCTASE 2” (University of Virginia Patent Foundation, priority 2021, published 2024).

Legend:
Assay in all cases: SILAC LC-MS ABPP
Assay type in all cases: cell-based
Details in all cases: 25 μM 2 h, live DM93 cells
P06400 = target: T1, P06400 (Homo sapiens, UniProt P06400)
T1 construct: endogenous in cells; host or cells: DM93 cells (SILAC)
Summary of the method: (§1)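 DM93 melanoma cells under SILAC: light treated with DMSO, heavy with SuTEx ligand (25 μM, 2 h, 37 °C) in serum-free medium, then HHS-475 alkyne probe (100 μM, 2 h, 37 °C). Soluble proteomes clicked to desthiobiotin-PEG3-azide by CuAAC, mixed 1:1, trypsinised, avidin-enriched; probe-modified tyrosine peptides quantified by LC-MS/MS.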

P30533 = target: T2, P30533 (Homo sapiens, UniProt P30533)
T2 construct: endogenous in cells; host or cells: DM93 (SILAC)
Summary of the method: as §1

P20618 = target: T3, P20618 (Homo sapiens, UniProt P20618)
T3 construct: endogenous in cells; host or cells: DM93 (SILAC)
Summary of the method: as §1

P55795 = target: T4, P55795 (Homo sapiens, UniProt P55795)
T4 construct: Probe-modified proteins from the soluble fraction were conjugated to a desthiobiotin-azide tag; endogenous in cells; host or cells: DM93 cells (SILAC)
Summary of the method: as §1

P42704 = target: T5, P42704 (Homo sapiens, UniProt P42704)
T5 construct: endogenous in cells; host or cells: DM93 cells (SILAC)
Summary of the method: as §1

P02794 = target: T6, P02794 (Homo sapiens, UniProt P02794)
T6 construct: endogenous in cells; host or cells: DM93 cells (SILAC)
Summary of the method: as §1

O43660 = target: T7, O43660 (Homo sapiens, UniProt O43660)
T7 construct: endogenous in cells; host or cells: DM93
Summary of the method: as §1

P19174 = target: T8, P19174 (Homo sapiens, UniProt P19174)
T8 construct: endogenous in cells; host or cells: DM93 (SILAC)
Summary of the method: as §1

P62993 = target: T9, P62993 (Homo sapiens, UniProt P62993)
T9 construct: performing SuTEx compound screening directly in cells; endogenous in cells; host or cells: DM93 cells (SILAC)
Summary of the method: as §1

O60506 = target: T10, O60506 (Homo sapiens, UniProt O60506)
T10 construct: endogenous in cells; host or cells: DM93
Summary of the method: as §1

P24666 = target: T11, P24666 (Homo sapiens, UniProt P24666)
T11 construct: endogenous in cells; host or cells: DM93 (SILAC)
Summary of the method: as §1

P23588 = target: T12, P23588 (Homo sapiens, UniProt P23588)
T12 construct: Probe-modified proteins from the soluble fraction were conjugated to a desthiobiotin-azide tag; endogenous in cells; host or cells: DM93 (SILAC)
Summary of the method: as §1

P53621 = target: T13, P53621 (Homo sapiens, UniProt P53621)
T13 construct: endogenous in cells; host or cells: DM93 cells (SILAC)
Summary of the method: as §1

P04040 = target: T14, P04040 (Homo sapiens, UniProt P04040)
T14 construct: endogenous in cells; host or cells: DM93 cells (SILAC)
Summary of the method: as §1

O00232 = target: T15, O00232 (Homo sapiens, UniProt O00232)
T15 construct: endogenous in cells; host or cells: DM93
Summary of the method: as §1

O43172 = target: T16, O43172 (Homo sapiens, UniProt O43172)
T16 construct: endogenous in cells; host or cells: DM93
Summary of the method: as §1

Q13033 = target: T17, Q13033 (Homo sapiens, UniProt Q13033)
T17 construct: performing SuTEx compound screening directly in cells; endogenous in cells; host or cells: DM93 cells (SILAC), soluble fraction
Summary of the method: as §1

T4 sequence (P55795 whole entry): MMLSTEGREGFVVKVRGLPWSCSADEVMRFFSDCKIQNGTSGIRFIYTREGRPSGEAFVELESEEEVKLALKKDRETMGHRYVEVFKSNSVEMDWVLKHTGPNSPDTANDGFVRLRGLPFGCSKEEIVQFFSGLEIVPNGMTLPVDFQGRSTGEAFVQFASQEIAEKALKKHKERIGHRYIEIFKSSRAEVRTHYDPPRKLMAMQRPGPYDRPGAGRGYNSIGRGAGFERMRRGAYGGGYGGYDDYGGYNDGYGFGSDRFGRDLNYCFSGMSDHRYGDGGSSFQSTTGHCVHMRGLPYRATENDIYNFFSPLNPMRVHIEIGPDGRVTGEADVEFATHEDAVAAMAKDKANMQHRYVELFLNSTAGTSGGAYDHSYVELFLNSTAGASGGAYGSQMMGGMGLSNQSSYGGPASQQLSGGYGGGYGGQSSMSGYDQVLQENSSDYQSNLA
T16 sequence (O43172 whole entry): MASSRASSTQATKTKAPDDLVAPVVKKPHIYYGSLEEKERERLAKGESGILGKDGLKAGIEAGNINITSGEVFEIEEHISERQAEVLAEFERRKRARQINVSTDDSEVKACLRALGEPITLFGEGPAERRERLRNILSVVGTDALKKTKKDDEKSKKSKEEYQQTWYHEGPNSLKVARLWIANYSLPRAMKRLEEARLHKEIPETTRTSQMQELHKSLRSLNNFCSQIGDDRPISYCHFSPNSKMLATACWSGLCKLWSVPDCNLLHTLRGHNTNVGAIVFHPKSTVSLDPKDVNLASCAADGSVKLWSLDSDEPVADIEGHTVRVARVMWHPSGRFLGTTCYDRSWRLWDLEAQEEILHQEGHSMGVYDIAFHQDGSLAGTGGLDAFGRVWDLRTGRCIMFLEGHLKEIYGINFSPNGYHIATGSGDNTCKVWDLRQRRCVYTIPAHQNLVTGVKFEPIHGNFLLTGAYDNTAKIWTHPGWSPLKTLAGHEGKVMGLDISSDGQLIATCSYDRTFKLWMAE
T11 sequence (P24666 whole entry): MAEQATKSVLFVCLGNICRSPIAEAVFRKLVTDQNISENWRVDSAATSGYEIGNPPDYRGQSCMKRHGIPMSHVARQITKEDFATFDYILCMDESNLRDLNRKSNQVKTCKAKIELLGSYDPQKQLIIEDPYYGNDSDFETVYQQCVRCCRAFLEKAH
T2 sequence (P30533 35-357): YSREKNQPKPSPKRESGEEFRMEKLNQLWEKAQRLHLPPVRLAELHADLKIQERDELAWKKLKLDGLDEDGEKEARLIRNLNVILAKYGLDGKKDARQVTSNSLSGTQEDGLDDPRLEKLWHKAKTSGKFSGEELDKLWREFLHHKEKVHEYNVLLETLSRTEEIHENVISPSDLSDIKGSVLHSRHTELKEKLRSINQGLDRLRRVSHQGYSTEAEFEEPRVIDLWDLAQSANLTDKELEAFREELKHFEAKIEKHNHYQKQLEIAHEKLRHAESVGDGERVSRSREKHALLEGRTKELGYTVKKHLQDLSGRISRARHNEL
T17 sequence (Q13033 whole entry): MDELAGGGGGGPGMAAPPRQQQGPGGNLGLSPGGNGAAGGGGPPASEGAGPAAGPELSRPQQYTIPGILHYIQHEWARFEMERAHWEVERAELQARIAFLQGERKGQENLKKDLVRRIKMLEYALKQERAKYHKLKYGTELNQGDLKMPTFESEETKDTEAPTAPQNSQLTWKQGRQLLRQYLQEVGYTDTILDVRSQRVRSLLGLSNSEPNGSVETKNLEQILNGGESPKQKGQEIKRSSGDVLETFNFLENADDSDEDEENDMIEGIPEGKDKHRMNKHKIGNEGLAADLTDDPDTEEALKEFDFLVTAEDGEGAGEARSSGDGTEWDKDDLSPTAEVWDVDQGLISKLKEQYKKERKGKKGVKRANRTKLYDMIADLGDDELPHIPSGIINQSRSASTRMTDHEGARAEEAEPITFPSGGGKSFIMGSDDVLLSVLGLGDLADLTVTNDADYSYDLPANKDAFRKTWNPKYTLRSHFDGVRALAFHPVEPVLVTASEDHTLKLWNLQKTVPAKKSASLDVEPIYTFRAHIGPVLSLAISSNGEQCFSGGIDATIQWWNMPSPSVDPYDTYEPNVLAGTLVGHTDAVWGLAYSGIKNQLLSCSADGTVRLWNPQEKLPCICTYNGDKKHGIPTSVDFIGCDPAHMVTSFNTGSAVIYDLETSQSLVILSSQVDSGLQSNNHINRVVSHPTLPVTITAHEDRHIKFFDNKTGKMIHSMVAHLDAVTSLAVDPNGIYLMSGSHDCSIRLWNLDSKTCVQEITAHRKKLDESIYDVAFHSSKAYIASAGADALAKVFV
T8 sequence (P19174 whole entry): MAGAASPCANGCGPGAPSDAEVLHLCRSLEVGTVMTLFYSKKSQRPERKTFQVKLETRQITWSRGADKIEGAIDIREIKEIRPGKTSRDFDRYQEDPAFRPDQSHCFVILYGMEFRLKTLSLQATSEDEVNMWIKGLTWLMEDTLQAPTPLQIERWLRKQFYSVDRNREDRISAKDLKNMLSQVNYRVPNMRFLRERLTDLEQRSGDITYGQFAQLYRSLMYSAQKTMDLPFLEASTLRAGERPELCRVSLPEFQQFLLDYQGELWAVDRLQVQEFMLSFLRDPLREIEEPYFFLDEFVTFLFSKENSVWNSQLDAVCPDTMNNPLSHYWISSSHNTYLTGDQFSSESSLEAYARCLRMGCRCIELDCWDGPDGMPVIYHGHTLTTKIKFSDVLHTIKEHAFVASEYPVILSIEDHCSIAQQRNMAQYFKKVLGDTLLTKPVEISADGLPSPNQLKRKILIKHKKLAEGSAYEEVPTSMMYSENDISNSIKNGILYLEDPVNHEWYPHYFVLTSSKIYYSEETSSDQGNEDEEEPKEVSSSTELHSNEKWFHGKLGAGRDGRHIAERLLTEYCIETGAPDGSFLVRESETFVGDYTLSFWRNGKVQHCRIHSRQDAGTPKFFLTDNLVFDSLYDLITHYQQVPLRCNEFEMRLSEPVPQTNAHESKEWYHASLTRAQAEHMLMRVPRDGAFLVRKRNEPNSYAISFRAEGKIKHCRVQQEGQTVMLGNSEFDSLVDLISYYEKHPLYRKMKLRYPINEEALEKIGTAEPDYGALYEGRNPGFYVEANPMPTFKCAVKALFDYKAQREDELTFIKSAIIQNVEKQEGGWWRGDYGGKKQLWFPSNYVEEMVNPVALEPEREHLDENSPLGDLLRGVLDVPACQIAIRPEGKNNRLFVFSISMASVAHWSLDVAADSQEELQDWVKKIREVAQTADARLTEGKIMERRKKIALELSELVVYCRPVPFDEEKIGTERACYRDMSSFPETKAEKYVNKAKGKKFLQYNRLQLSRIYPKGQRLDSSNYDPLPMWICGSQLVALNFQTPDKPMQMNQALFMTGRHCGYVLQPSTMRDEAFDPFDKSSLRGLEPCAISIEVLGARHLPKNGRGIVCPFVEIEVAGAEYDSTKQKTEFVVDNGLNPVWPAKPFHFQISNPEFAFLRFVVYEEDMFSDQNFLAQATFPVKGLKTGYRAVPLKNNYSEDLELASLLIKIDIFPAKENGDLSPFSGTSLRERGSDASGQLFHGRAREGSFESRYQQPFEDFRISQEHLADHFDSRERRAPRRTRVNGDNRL
T9 sequence (P62993 whole entry): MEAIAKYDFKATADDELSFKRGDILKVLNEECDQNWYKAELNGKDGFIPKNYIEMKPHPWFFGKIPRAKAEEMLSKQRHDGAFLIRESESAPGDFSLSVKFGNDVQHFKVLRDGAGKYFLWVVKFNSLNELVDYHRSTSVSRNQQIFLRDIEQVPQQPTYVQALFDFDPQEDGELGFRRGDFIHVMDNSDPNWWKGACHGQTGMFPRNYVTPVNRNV
T6 sequence (P02794 whole entry): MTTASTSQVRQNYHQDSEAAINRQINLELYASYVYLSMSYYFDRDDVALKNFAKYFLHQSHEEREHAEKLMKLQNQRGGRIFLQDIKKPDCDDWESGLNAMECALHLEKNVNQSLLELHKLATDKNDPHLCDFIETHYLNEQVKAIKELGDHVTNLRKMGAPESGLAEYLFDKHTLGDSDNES
T7 sequence (O43660 whole entry): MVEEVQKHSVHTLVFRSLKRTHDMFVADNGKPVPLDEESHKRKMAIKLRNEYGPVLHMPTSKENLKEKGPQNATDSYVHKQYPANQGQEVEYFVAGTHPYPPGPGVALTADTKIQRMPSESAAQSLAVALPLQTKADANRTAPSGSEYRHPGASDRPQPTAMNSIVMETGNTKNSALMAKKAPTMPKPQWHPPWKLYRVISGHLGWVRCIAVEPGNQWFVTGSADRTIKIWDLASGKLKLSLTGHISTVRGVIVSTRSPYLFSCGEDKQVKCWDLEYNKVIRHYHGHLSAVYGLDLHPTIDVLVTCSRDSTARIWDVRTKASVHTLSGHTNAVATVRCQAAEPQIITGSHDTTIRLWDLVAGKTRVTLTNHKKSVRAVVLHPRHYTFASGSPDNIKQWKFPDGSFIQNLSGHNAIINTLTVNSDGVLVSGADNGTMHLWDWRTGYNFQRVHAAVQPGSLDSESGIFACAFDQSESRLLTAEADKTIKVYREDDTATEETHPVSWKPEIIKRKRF
T14 sequence (P04040 whole entry): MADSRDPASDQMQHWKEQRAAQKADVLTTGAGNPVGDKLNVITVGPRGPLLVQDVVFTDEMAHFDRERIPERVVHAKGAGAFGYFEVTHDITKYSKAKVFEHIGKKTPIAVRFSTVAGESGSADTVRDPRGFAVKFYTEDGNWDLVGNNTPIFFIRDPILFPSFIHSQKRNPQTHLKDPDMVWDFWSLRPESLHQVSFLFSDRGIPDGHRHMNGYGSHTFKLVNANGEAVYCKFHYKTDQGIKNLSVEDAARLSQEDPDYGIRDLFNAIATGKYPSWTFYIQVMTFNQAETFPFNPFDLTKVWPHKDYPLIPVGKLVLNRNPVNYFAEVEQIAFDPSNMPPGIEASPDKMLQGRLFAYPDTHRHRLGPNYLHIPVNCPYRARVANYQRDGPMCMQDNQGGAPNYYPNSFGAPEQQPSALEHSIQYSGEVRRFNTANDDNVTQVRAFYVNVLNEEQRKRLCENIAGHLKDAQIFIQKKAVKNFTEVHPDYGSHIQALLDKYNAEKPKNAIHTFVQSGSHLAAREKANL

## O=C(NC1CCCCC1)c1ccc(S(=O)(=O)n2cncn2)cc1 [HHS-0301, 4-((1H-1,2,4-triazol-1-yl)sulfonyl)-N-cyclohexylbenzamide]
P06400
  liganded tyrosine site 91: HHS0301.Y|HHS0701.Y (tyrosine sites that showed >80% reductions (SR >5) in probe labeling in cells treated with compounds (liganded sites))
P30533
  liganded tyrosine site 336: HHS0301.Y|HHS0701.Y (tyrosine sites that showed >80% reductions (SR >5) in probe labeling in cells treated with compounds (liganded sites))
P20618
  liganded tyrosine site 135: HHS0301.Y (tyrosine sites that showed >80% reductions (SR >5) in probe labeling in cells treated with compounds (liganded sites))

## O=C(c1ccc(S(=O)(=O)n2cncn2)cc1)N1CCC(c2ccccc2)CC1 [HHS-0701, (4-((1H-1,2,4-triazol-1-yl)sulfonyl)phenyl)(4-phenylpiperidin-1-yl)methanone]
P55795
  liganded tyrosine site 240: HHS0701.Y (tyrosine sites that showed >80% reductions (SR >5) in probe labeling in cells treated with compounds (liganded sites))
  liganded tyrosine site 243: HHS0701.Y (tyrosine sites that showed >80% reductions (SR >5) in probe labeling in cells treated with compounds (liganded sites))

## O=C(NCC1CC1)c1ccc(S(=O)(=O)n2cncn2)cc1 [HHS-0201, 4-((1H-1,2,4-triazol-1-yl)sulfonyl)-N-(cyclopropylmethyl)benzamide]
P42704
  liganded tyrosine site 1365: HHS0201.Y (tyrosine sites that showed >80% reductions (SR >5) in probe labeling in cells treated with compounds (liganded sites))
P02794
  liganded tyrosine site 13: HHS0201.Y (tyrosine sites that showed >80% reductions (SR >5) in probe labeling in cells treated with compounds (liganded sites))
O43660
  liganded tyrosine site 82: HHS0201.Y (tyrosine sites that showed >80% reductions (SR >5) in probe labeling in cells treated with compounds (liganded sites))
P19174
  liganded tyrosine site 472: HHS0201.Y (tyrosine sites that showed >80% reductions (SR >5) in probe labeling in cells treated with compounds (liganded sites))
P62993
  liganded tyrosine site 160: HHS0201.Y (tyrosine sites that showed >80% reductions (SR >5) in probe labeling in cells treated with compounds (liganded sites))
O60506
  liganded tyrosine site 570: HHS0201.Y|HHS0301.Y|HHS0401.Y|HHS0701.Y (tyrosine sites that showed >80% reductions (SR >5) in probe labeling in cells treated with compounds (liganded sites))
P24666
  liganded tyrosine site 88: HHS0201.Y|HHS0401.Y|HHS0701.Y (tyrosine sites that showed >80% reductions (SR >5) in probe labeling in cells treated with compounds (liganded sites))

## O=C(NC1CC1)c1ccc(S(=O)(=O)n2cncn2)cc1 [HHS-0101, 4-((1H-1,2,4-triazol-1-yl)sulfonyl)-N-cyclopropylbenzamide]
P23588
  liganded tyrosine site 258: HHS0101.Y (tyrosine sites that showed >80% reductions (SR >5) in probe labeling in cells treated with compounds (liganded sites))
P53621
  liganded tyrosine site 628: HHS0101.Y|HHS0401.Y|HHS0701.Y (tyrosine sites that showed >80% reductions (SR >5) in probe labeling in cells treated with compounds (liganded sites))
P04040
  liganded tyrosine site 358: HHS0101.Y|HHS0201.Y|HHS0301.Y|HHS0701.Y (tyrosine sites that showed >80% reductions (SR >5) in probe labeling in cells treated with compounds (liganded sites))
O00232
  liganded tyrosine site 20: HHS0101.Y|HHS0301.Y|HHS0401.Y|HHS0701.Y (tyrosine sites that showed >80% reductions (SR >5) in probe labeling in cells treated with compounds (liganded sites))
O43172
  liganded tyrosine site 31: HHS0101.Y|HHS0301.Y (tyrosine sites that showed >80% reductions (SR >5) in probe labeling in cells treated with compounds (liganded sites))
  liganded tyrosine site 32: HHS0101.Y|HHS0301.Y (tyrosine sites that showed >80% reductions (SR >5) in probe labeling in cells treated with compounds (liganded sites))
Q13033
  liganded tyrosine site 137: HHS0101.Y|HHS0401.Y (tyrosine sites that showed >80% reductions (SR >5) in probe labeling in cells treated with compounds (liganded sites))
